Counter-ions that a name gives are not always drawn.
Test system: Staphylococcus aureus
Assay: Antibacterial activity assay (MIC, broth dilution)
Type: cell-based
Design: S. aureus Killing / Bacterial Killing S. aureus: unit not given here
Settings: Staphylococcus aureus; Table 21; read-out: Staphylococcus aureus MIC

| Compound | MIC [µg/mL] |
| --- | --- |
| CN(C)c1ccc(/C=C/c2cc(-c3ccc(C(F)(F)F)cc3)cc(-c3ccc(C(F)(F)F)cc3)[o+]2)cc1.F[B-](F)(F)F | > 64 |

Same assay, conditions: anti-bacterial activity (MIC); strain not stated

| Compound | S. aureus Killing |
| --- | --- |
| Cc1cc(C)[o+]c(C)c1 [2,4,6-trimethylpyrylium boron tetrafluoride salt] | >64 |
| Cc1cc(-c2ccc(C)c(C)c2)cc(-c2ccc(C)c(C)c2)[o+]1 [2,4-bis(3,4-dimethylphenyl)-6-methylpyrylium boron tetrafluoride salt] | >64 |
| CN(C)c1ccc(/C=C/C=C/c2cc(-c3ccc(C(C)(C)C)cc3)cc(-c3ccc(C(C)(C)C)cc3)[o+]2)cc1 [2,4-bis(4-(tert-butyl)phenyl)-6-((1E,3E)-4-(4-(dimethylamino)phenyl)buta-1,3-dien-1-yl)pyrylium boron tetrafluoride salt] | 64 |
| Cc1cc(-c2ccc(C(C)(C)C)cc2)cc(-c2ccc(C(C)(C)C)cc2)[o+]1 [2,4-bis(4-(tert-butyl)phenyl)-6-methylpyrylium boron tetrafiuoride salt] | >64 |
| CN(C)c1ccc(/C=C/C=C/c2cc(-c3ccc(Br)cc3)cc(-c3ccc(Br)cc3)[o+]2)cc1 [2,4-bis(4-bromophenyi)-6-((1E,3E)-4-(4-(dimetliylamino)phenyl)buta-1,3-dien-1-yl)pyrylium boron tetrafluoride salt] | >64 |
| CN(C)c1ccc(/C=C/C=C/c2cc(-c3ccc(Cl)cc3)cc(-c3ccc(Cl)cc3)[o+]2)cc1 [2,4-bis(4-chlorophenyl)-6-((1E,3E)-4-(4-(dimethylamino)phenyl)buta-1,3-dien-1-yl)pyrylium boron tetrafluoride salt] | >64 |
| Cc1cc(-c2ccc(Cl)cc2)cc(-c2ccc(Cl)cc2)[o+]1 [2,4-bis(4-chlorophenyl)-6-methylpyrylium boron tetrafluoride salt] | >64 |
| CCc1ccc(-c2cc(C)[o+]c(-c3ccc(CC)cc3)c2)cc1 [2,4-bis(4-ethylphenyl)-6-methylpyrylium boron tetrafluoride salt] | >64 |
| COc1ccc(-c2cc(C)[o+]c(-c3ccc(OC)cc3)c2)cc1 [2,4-bis(4-methoxyphenyl)-6-methylpyrylium boron tetrafluoride salt] | >64 |
| Cc1ccc(-c2cc(/C=C/C=C/c3ccc(N(C)C)cc3)[o+]c(-c3ccc(C)c(C)c3)c2)cc1C [2-((1E,3E)-4-(4-(dimethylamino)phenyl)buta-1,3-dien-1-yl)-4,6-bis(3,4~ dimethylphenyl) pyrylium boron tetrafluoride salt] | 32 |
| CCc1ccc(-c2cc(/C=C/C=C/c3ccc(N(C)C)cc3)[o+]c(-c3ccc(CC)cc3)c2)cc1 [2-((1E,3E)-4-(4-(dimethylamino)phenyl)buta-1,3-dien-1-yl)-4,6-bis(4-ethylphenyl) pyrylium boron tetrafluoride salt] | 8 |
| Cc1ccc(-c2cc(/C=C/C=C/c3ccc(N(C)C)cc3)[o+]c(-c3ccc(C)cc3)c2)cc1 [2-((1E,3E)-4-(4-(dimethylamino)phenyl)buta-1,3-dien-1-yl)-4,6-di-p-tolylpyrylium boron tetrafluoride salt] | 2 |
| CN(C)c1ccc(/C=C/C=C/c2cc(-c3ccccc3)cc(-c3ccccc3)[o+]2)cc1 [2-((1E,3E)-4-(4-(dimethylamino)phenyl)buta-1,3-dien-1-yl)-4,6-diphenyl pyrylium boron tetrafluoride salt] | 4 |
| Cc1cc(-c2ccccc2)cc(-c2ccccc2)[o+]1 [2-methy1-4,6-diphenylpyrylium boron tetrafluoride salt] | >64 |
| Cc1ccc(-c2cc(C)[o+]c(-c3ccc(C)cc3)c2)cc1 [2-methyl-4,6-di-p-tolylpyrylium boron tetrafluoride salt] | >64 |
| Cc1cc(/C=C/C=C/c2ccc(N(C)C)cc2)cc(C)[o+]1 [4-((1E,3E)-4-(4-(dimethylamino)phenyl)buta-1,3-dien-1-yl)-2,6-dimethylpyrylium boron tetrafluoride salt] | 32 |
| Cc1ccc(-c2cc(/C=C/c3cn(C)c4ccccc34)[o+]c(-c3ccc(C)c(C)c3)c2)cc1C [(E)-2,4-bis(3,4-dimethylphenyl)-6-(2-(1-methyl-1H-indol-3-yl)vinyl)pyrylium boron tetrafluoride salt] | 1 |
| CC(C)(C)c1ccc(-c2cc(/C=C/c3cc4c5c(c3)CCCN5CCC4)[o+]c(-c3ccc(C(C)(C)C)cc3)c2)cc1 [(E)-2,4-bis(4-(tert-butyl)phenyl)-6-(2-(1,2,3,5,6,7-hexahydropyrido [3,2,1-ij]quinolin-9-yl)vinyl)pyrylium boron tetrafluoride salt] | 32 |
| Cn1cc(/C=C/c2cc(-c3ccc(C(C)(C)C)cc3)cc(-c3ccc(C(C)(C)C)cc3)[o+]2)c2ccccc21 [(E)-2,4-bis(4-(tert-butyl)phenyl)-6-(2-(1-methyl-1H-indol-3-yl)vinyl)pyrylium boron tetrafluoride salt] | 16 |

| Compound | S. aureus Killing |
| --- | --- |
| CN(C)c1ccc(/C=C/c2cc(-c3ccc(C(C)(C)C)cc3)cc(-c3ccc(C(C)(C)C)cc3)[o+]2)cc1 [(E)-2,4-bis(4-(tert-butyl)phenyl)-6-(4-(dimethylamino)styryl)pyrylium boron tetrafluoride salt] | 8 |
| Cn1cc(/C=C/c2cc(-c3ccc(Br)cc3)cc(-c3ccc(Br)cc3)[o+]2)c2ccccc21 [(E)-2,4-bis(4-bromophenyl)-6-(2-(1-methyl-1H-indol-3-yl)vinyl)pyrylium boron tetrafluoride salt] | 64 |
| Clc1ccc(-c2cc(/C=C/c3cc4c5c(c3)CCCN5CCC4)[o+]c(-c3ccc(Cl)cc3)c2)cc1 [(E)-2,4-bis(4-chlorophenyl)-6-(2-(1,2,3,5,6,7-hexahydropyrido [3,2,1-ij]quinolin-9-yl)vinyl)pyrylium boron tetrafluoride salt] | 1 |
| Cn1cc(/C=C/c2cc(-c3ccc(Cl)cc3)cc(-c3ccc(Cl)cc3)[o+]2)c2ccccc21 [(E)-2,4-bis(4-chlorophenyl)-6-(2-(1-methyl-1H-indol-3-yl)vinyl)pyrylium boron tetrafluoride salt] | 64 |
| Brc1ccc(-c2cc(/C=C/c3cc4c5c(c3)CCCN5CCC4)[o+]c(-c3ccc(Br)cc3)c2)cc1 [(E)-2,4-bis(4~ bromophenyl)-6-(2-(1,2,3,5,6,7-hexahydropyrido [3,2,1-ij]quinolin-9-yl)vinyl)pyrylium boron tetrafluoride salt] | 4 |
| Cc1ccc(-c2cc(/C=C/c3cc4c5c(c3)CCCN5CCC4)[o+]c(-c3ccc(C)cc3)c2)cc1 [(E)-2-(2-(1,2,3,5,6,7-hexahydropyrido [3,2,1-ij]quinolin-9-yl)vinyl)-4,6-di-p-tolylpyrylium boron tetrafluoride salt] | 1 |
| C(=C\c1cc(-c2ccccc2)cc(-c2ccccc2)[o+]1)/c1cc2c3c(c1)CCCN3CCC2 [(E)-2-(2-(1,2,3,5,6,7-hexahydropyrido [3,2,1-ij]quinolin-9-yl)vinyl)-4,6-diphenylpyrylium boron tetrafluoride salt] | 1 |
| Cc1ccc(-c2cc(/C=C/c3cn(C)c4ccccc34)[o+]c(-c3ccc(C)cc3)c2)cc1 [(E)-2-(2-(1-methyl-1H-indol-3-yl)vinyl)-4,6-di-p-tolylpyrylium boron tetrafluoride salt] | 0.5 |
| Cn1cc(/C=C/c2cc(-c3ccccc3)cc(-c3ccccc3)[o+]2)c2ccccc21 [(E)-2-(2-(1-methyl-1H-indol-3-yl)vinyl)-4,6-diphenylpyrylium boron tetrafluoride salt] | 0.5 |
| Cc1ccc(-c2cc(/C=C/c3c[nH]c4ccccc34)[o+]c(-c3ccc(C)c(C)c3)c2)cc1C [(E)-2-(2-(1H-indol-3-yl)vinyl)-4,6-bis(3,4-dimethylphenyl) pyrylium boron tetrafluoride salt] | 4 |
| Brc1ccc(-c2cc(/C=C/c3c[nH]c4ccccc34)[o+]c(-c3ccc(Br)cc3)c2)cc1 [(E)-2-(2-(1H-indol-3-yl)vinyl)-4,6-bis(4-bromophenyl) pyrylium boron tetrafluoride salt] | >64 |
| Clc1ccc(-c2cc(/C=C/c3c[nH]c4ccccc34)[o+]c(-c3ccc(Cl)cc3)c2)cc1 [(E)-2-(2-(1H-indol-3-yl)vinyl)-4,6-bis(4-chlorophenyl) pyrylium boron tetrafluoride salt] | 16 |
| CCc1ccc(-c2cc(/C=C/c3c[nH]c4ccccc34)[o+]c(-c3ccc(CC)cc3)c2)cc1 [(E)-2-(2-(1H-indol-3-yl)vinyl)-4,6-bis(4-ethylphenyl) pyrylium boron tetrafluoride salt] | 4 |
| Cc1ccc(-c2cc(/C=C/c3c[nH]c4ccccc34)[o+]c(-c3ccc(C)cc3)c2)cc1 [(E)-2-(2-(1H-indol-3-yl)vinyl)-4,6-di-p-tolylpyiylium boron tetrafluoride salt] | 4 |
| C(=C\c1c[nH]c2ccccc12)/c1cc(-c2ccccc2)cc(-c2ccccc2)[o+]1 [(E)-2-(2-(1H-indol-3-yl)vinyl)-4,6-diphenylpyrylium boron tetrafluoiide salt] | 1 |
| CC(C)(C)c1ccc(-c2cc(/C=C/c3c[nH]c4ccccc34)[o+]c(-c3ccc(C(C)(C)C)cc3)c2)cc1 [(E)-2-(2-(1H-mdol-3-yl)vinyl)-4,6-bis(4-(tert-butyl)phenyl) pyrylium boron tetrafluoride salt] | 32 |
| Cc1ccc(-c2cc(/C=C/c3ccc(N(C)C)cc3)[o+]c(-c3ccc(C)c(C)c3)c2)cc1C [(E)-2-(4-(dimethylamino)styryl)-4,6-bis(3,4-dimethylphenyl) pyrylium boron tetrafluoride salt] | 2 |
| CCc1ccc(-c2cc(/C=C/c3ccc(N(C)C)cc3)[o+]c(-c3ccc(CC)cc3)c2)cc1 [(E)-2-(4-(dimethylamino)styryl)-4,6-bis(4-ethylphenyl) pyryliurn boron tetrafluoride salt] | 1 |
| Cc1ccc(-c2cc(/C=C/c3ccc(N(C)C)cc3)[o+]c(-c3ccc(C)cc3)c2)cc1 [(E)-2-(4-(dimethylamino)styryl)-4,6-di-p-tolylpyrylium boron tetrafluoride salt] | 0.5 |
